Test results published in paper PMC9585581, “Developing Photoaffinity Probes for Dopamine Receptor D2 to Determine Targets of Parkinson’s Disease Drugs” (ACS Chemical Neuroscience, 2022).

Molecular target: DRD2 (Homo sapiens, UniProt P14416)
Experiment: Western blot analysis of DRD2-probe binding with competition by parent pharmacophore
Design: expressed in transfected cells
Conditions: probe 100 nm; for competition with parent pharmacophore (Western blot): competitor (ropinirole or pramipexole) 50 μM; for photo-cross-linking / colocalization with DRD2 band (Western blot): membrane fraction enriched via Strep Tag II
Text: To observe the photo-cross-linking of DRD2 at the protein level, we analyzed the colocalization of DRD2 by clicking a fluorophore on the probe and performing Western blots. We further observed the competition with the parent pharmacophore of each probe and the ability of a negative control benzophenone (16) to cross-link to DRD2. Our DRD2-expressing cells or unmodified 293T cells (control group) were suspended in media, treated with the probe at a 100 nm concentration, and photo-cross-linked. The cells were then lysed, and the membrane fraction was separated and enriched for DRD2 by pulldown of the Strep Tag II fusion using magnetic beads. After “clicking” a fluorescent tag to the probe, the membrane fraction was run on an SDS-PAGE gel, transferred to a nitrocellulose membrane, and treated with antibodies against DRD2 and Strep Tag II. […] We also observed many nonspecific binding bands for the probe, which is consistent with our other studies, as well as the observations of the field when it relates to photo-cross-linking groups. […] With this confirmation, we proceeded to proteomic analysis of probe interactions.
Figure 6 Photo-cross-linking of probes 5 and 7 to DRD2 visualized with Western blot. Lanes 1–5 correspond to samples with probe 5 at 100 nm, lanes 6–10 correspond to samples treated with probe 7 at 100 nm, and lanes 11–14 correspond to samples treated with negative control probe 16. Lanes: 1, 6, and 11 are the anti-DRD2 antibody channel, lanes 2, 3, 7, 8, and 12 are fluorescence of the Alexa Fluor 555 clicked to the probes 5, 7, or 16, lanes 4, 9, and 13 are the anti-Strep Tag antibody channel, and lanes 5, 10, and 14 are the overlaid channels for the respective probes.
A stable HEK293T-derived cell line-expressing DRD2-Strep Tag II fusion was maintained in DMEM supplemented with 10% FBS, 100 U/mL penicillin, and 100 μg/mL streptomycin in a humidified atmosphere at 37 °C in 5% CO2. Cells were plated at a density of 4 × 10^4 cells/cm^2 in T300 tissue culture flasks (CellTreat) and allowed to grow to an 80% confluency. At confluency, media was removed and cells were washed once with cold HBSS, followed by incubation for 15 min in cold HBSS with 0.53 mM EDTA. Following incubation, cells were scraped off of the bottom of the flask and the cell suspension was transferred to a 15 mL conical tube and then pelleted at 500g for 5 min. The supernatant was removed, and the cell pellet was resuspended in HBSS followed by centrifugation at 500g for 5 min. […] The supernatant of the cell pellet was removed, and the cells were resuspended in probe solution and incubated at room temperature for 2 min followed by centrifugation at 500g for 5 min. The cell pellet was resuspended in either HBSS or 50 μM competitor solution in HBSS and irradiated with a 365 nm UV lamp (8 W, 2 cm distance) for 30 min at room temperature. The cells were then pelleted at 500g for 5 min, and the supernatant was removed. Membrane fractionation was performed following the MEM-PER Membrane Protein Extraction Kit (Thermo). The solubilized membrane fraction was incubated with hydrophilic streptavidin magnetic beads (NEB) for 1 h at room temperature. The flow-through was removed, and the beads were washed twice with PBS. […]

DRD2, sequence (P14416 whole entry): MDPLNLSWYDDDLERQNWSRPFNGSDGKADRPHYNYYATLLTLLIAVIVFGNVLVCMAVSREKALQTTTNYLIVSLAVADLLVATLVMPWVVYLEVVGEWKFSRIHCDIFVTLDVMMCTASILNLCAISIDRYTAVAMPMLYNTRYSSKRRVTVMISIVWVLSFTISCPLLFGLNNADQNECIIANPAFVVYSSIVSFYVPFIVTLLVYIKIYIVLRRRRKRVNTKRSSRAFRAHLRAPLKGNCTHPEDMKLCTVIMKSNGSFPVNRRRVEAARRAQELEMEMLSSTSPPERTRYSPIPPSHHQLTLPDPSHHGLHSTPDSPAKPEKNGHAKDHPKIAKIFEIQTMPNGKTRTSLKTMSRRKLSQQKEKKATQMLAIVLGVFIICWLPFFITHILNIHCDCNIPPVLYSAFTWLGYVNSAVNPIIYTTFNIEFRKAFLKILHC

Row | Structure (SMILES) | competition with parent pharmacophore (Western blot) | photo-cross-linking / colocalization with DRD2 band (Western blot)
1 | C#CCOc1ccc(C(=O)c2ccc(CNCCc3cccc4c3CC(=O)N4)cc2)cc1 [Compound 5, 4-(2-((4-(4-(Prop-2-yn-1-yloxy)benzoyl)benzyl)amino)ethyl)indolin-2-one] | greatly diminish the binding | binding to the DRD2 receptor
2 | C#CCOc1ccc(C(=O)c2ccc(CN[C@H]3CCc4nc(N)sc4C3)cc2)cc1 [Compound 7, (S)-(4-(((2-Amino-4,5,6,7-tetrahydrobenzo[d]thiazol-6-yl)amino)methyl)phenyl)(4-(prop-2-yn-1-yloxy)phenyl)methanone] | greatly diminish the binding | binding to the DRD2 receptor
